Data: ChEMBL document CHEMBL1201862, “PubChem BioAssay data set” (2004)
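Five compound concentrations were applied to cells in 96-well plates for 48 hours; endpoints were derived by simple linear interpolation of the resulting dose-response curve. GI50 is the concentration that inhibits growth by half.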 Activity calls are given as the source filed them. Cut-off read from the data, not from the text of the source: active = GI50 up to about 1.1 µM and inactive = higher.

Experiments:
Test in all cases: DTP human tumour cell line panel, 48 h
HOP-62 = tested on: HOP-62
CCRF-CEM = tested on: CCRF-CEM
SF-295 = tested on: SF-295
HT-29 = tested on: HT-29
HCT-15 = tested on: HCT-15
U-251 = tested on: U-251
786-0 = tested on: 786-0
SF-268 = tested on: SF-268
NCI-H460 = tested on: NCI-H460
UO-31 = tested on: UO-31
NCI-H226 = tested on: NCI-H226
KM12 = tested on: KM12
OVCAR-5 = tested on: OVCAR-5
BT-549 = tested on: BT-549
SNB-19 = tested on: SNB-19
SN12C = tested on: SN12C
MCF7 = tested on: MCF7
SR = tested on: SR
MDA-N = tested on: MDA-N
LOX IMVI = tested on: LOX IMVI

| SMILES | GI50 (HOP-62) | GI50 (CCRF-CEM) | GI50 (SF-295) | GI50 (HT-29) | GI50 (HCT-15) | GI50 (U-251) | GI50 (786-0) | GI50 (SF-268) | GI50 (NCI-H460) | GI50 (UO-31) | GI50 (NCI-H226) | GI50 (KM12) | GI50 (OVCAR-5) | GI50 (BT-549) | GI50 (SNB-19) | GI50 (SN12C) | GI50 (MCF7) | GI50 (SR) | GI50 (MDA-N) | GI50 (LOX IMVI) |
| --- | --- | --- | --- | --- | --- | --- | --- | --- | --- | --- | --- | --- | --- | --- | --- | --- | --- | --- | --- | --- |
| Brc1ccc(-c2[nH]c3ccccc3c2/C=N\Nc2ccc(-c3nc4ccccc4[nH]3)cc2)cc1 | < 0.01 µM (active) | < 0.01 µM (active) | < 0.01 µM (active) | < 0.01 µM (active) | < 0.01 µM | < 0.01 µM (active) | < 0.01 µM (active) | < 0.01 µM (active) | < 0.01 µM (active) | < 0.01 µM (active) | < 0.01 µM (active) | < 0.01 µM (active) | < 0.0448 µM (active) | 2.08 µM (inactive) | < 0.01 µM (active) | < 0.01 µM (active) | < 0.0171 µM (active) | < 0.01 µM (active) | < 0.01 µM (active) | < 0.01 µM (active) |
| CC12CCC(C(Br)(Br)C1=O)C2(C)C (stereo not given) | 6 µM (inactive) | < 0.0166 µM (active) | 3.49 µM (inactive) | 0.228 µM (active) | 0.164 µM | < 0.0469 µM (active) | 0.0545 µM (active) | 0.0989 µM (active) | 4.05 µM (inactive) | 0.48 µM (active) | 2.03 µM (inactive) | 2.77 µM (inactive) | 2.28 µM (inactive) | 0.173 µM (active) | 9.62 µM (inactive) | 0.904 µM (active) | 0.082 µM (active) | < 0.01 µM (active) | 0.196 µM (active) | 0.611 µM (active) |
| O=C(O)c1ccc2c(c1)CC1(C2)Cc2cc3c(cc2C1=O)CCC3 (stereo not given) | > 100 µM (inactive) | > 100 µM (inactive) | 93.3 µM (inactive) | > 100 µM (inactive) | 79.6 µM | > 100 µM (inactive) | > 100 µM (inactive) | 46.8 µM (inactive) | > 100 µM (inactive) | 85.1 µM (inactive) | > 100 µM (inactive) | > 100 µM (inactive) | > 100 µM (inactive) | > 100 µM (inactive) | > 100 µM (inactive) | > 100 µM (inactive) | > 100 µM (inactive) | > 100 µM (inactive) | > 100 µM (inactive) | > 100 µM (inactive) |
| CC(=O)CCCCn1c(=O)c2c(nc(Br)n2C)n(C)c1=O | > 100 µM (inactive) | > 100 µM (inactive) | > 100 µM (inactive) | > 100 µM (inactive) | > 100 µM | > 100 µM (inactive) | > 100 µM (inactive) | > 100 µM (inactive) | > 100 µM (inactive) | 32.4 µM (inactive) | > 100 µM (inactive) | > 100 µM (inactive) | > 100 µM (inactive) | > 100 µM (inactive) | > 100 µM (inactive) | > 100 µM (inactive) | > 100 µM (inactive) | > 100 µM (inactive) | > 100 µM (inactive) | > 100 µM (inactive) |
